Assay results from US6280760A, “Peptide-coated implants and methods for producing same” (Merck Patent Gesellschaft mit beschraenkter Haftung, priority 1997, dated 2001).

Assays:
human platelets = experiment: Adhesion of human platelets to PMMA bone cement shaped articles coated with cell-selective acrylate peptides; type: cell-based; details: for cell adhesion, calculated Abs (405 nm), platelets: first part experiment
From the text: (§1) The model used for material coating with RGD peptides of different cell selectivity to obtain implants having locally differentiated bioactive coating patterns which should stimulate the adhesion of different cell species was polymerized PMMA bone cement shaped articles. To these were covalently coupled two RGD peptides of different cell selectivity. In this case acrylate peptide 3, type iiia, having a selectivity for alphav beta3 -/alphav beta5 -integrin-bearing osteoblasts, and acrylate peptide 5, type iiia, having a selectivity for […] -positive platelets were bonded to the PMMA shaped articles as described for Example 3.
(§2) a. In the first part experiment, PMMA shaped articles were coated with the acrylate peptides 3 and 5 in concentrations in the coating solution of 100 μM, 10 μM and 1 μM in each case. These RGD peptide-coated materials were then inoculated in parallel with osteoblasts and platelets and their cell adhesion was determined.
(§3) MC3T3 H1 osteoblasts (350,000 cells/cm^2) and human platelets (50 million cells/cm^2) were in each case inoculated in parallel both onto acrylate peptide 3- and acrylate peptide 5-coated PMMA shaped articles and their cell adhesion was determined as described in Example 3.
Human platelets were prepared following the process of Shattil and Brass (J. Biol. Chem. 262:992-1000, 1987).
(§4) b. In the second part experiment, PMMA shaped articles were likewise coated with the acrylate peptides 3 and 5, but only in a concentration in the coating solution of 100 μM in each case. These RGD peptide-coated materials were then inoculated in parallel with osteoblasts, platelets or an osteoblast/platelet mixture and their cell adhesion was determined. MC3T3 H1 osteoblasts (350,000 cells/cm^2), human platelets (50 million cell/cm^2) and a cell mixture (350,000 osteoblasts/cm^2 […] 50 million platelets/cm^2) were in each case inoculated in parallel both onto acrylate peptide 3- and acrylate peptide 5-coated PMMA shaped articles and their cell adhesion was determined as described in Example 3.

[1] = system: osteoblasts/platelets mixture; experiment: Adhesion of an osteoblast/platelet mixture to PMMA bone cement shaped articles coated with cell-selective acrylate peptides; type: cell-based, mouse, human; details: second part experiment; 100 μM peptide in the coating solution
Method: as §4

MC3T3 H1 osteoblasts [2] = experiment: Adhesion of MC3T3 H1 osteoblasts to V4A stainless steel shaped articles coated with acrylate peptide 3; type: cell-based, mouse; details: for maximum adhesion rates: V4A stainless steel
Method: For testing the cell adhesion of osteoblasts to peptide-coated metal surfaces, V4A stainless steel shaped articles (7×7×1 mm^3) were provided with three different coating variants and in each case then coated in turn with RGD peptides. To do this, first the stainless steel shaped articles were incubated in an ultrasonic bath at 60° C. for 15 min for the purpose of cleaning, rinsed with demineralized water, incubated in acetone for 30 min, rinsed again with demineralized water and incubated at 60° C. for 24 hours for drying.
The stainless steel platelets were then coated by means of three variants:
The Kevloc® primer solution was thinly applied and incubated at room temperature for 3 min. Then the Kevloc® bond solution was likewise thinly applied and activated in a kiln at 180° C. for 20 min.
Since this coating variant directly makes available free acrylate radicals on the metal surface, it was then possible to directly covalently couple the acrylate peptide 3, types iiia, as was described in Example 3 for polymerized PMMA-bone cement.
The Siliseal® solution was thinly applied and dried at room temperature for 5 min. Then the Sililink solution was likewise thinly applied and activated in the kiln at 320° C. for 3 min.
To make available acrylate radicals on the coated metal surfaces, the pretreated stainless steel shaped articles were immersed in demineralized water heated to 75° C., adjusted to pH about 8.00 using NaOH. A 1% 3-methacryloxypropyltrimethoxysilane solution (Huls AG, Germany) was then metered in with strirring over a period of one hour until a pH of about 6.50 was achieved. The mixture was then stirred at 75° C. for one hour; the pH at this time was about 6.35.
The bonding of acrylate peptide 3, type iiia, was carried out as described in Example 3 for polymerized PMMA bone cement.
For this, the stainless steel shaped articles were immersed in demineralized water heated to 75° C., adjusted to pH about 8.00 using NaOH, and an AlCl3 solution was metered in with stirring over a period of two hours. Then a 5% sodium silicate solution was likewise metered in with stirring over two hours. In the following step, a 1% 3-methacryloxypropyltrimethoxysilane solution (Huls AG, Germany) was metered in with stirring in the course of one hour. The mixture was then stirred at 75° C. for one hour; the pH was at this time about 6.40.
After the stainless steel shaped articles had been coated with acrylate peptide 3, type iiia, by means of three different processes, the adhesion of osteoblasts of the line MC3T3 H1 was investigated. To do this, a procedure as described in Example 3 was used.

MC3T3 H1 osteoblasts [3] = experiment: Adhesion of MC3T3 H1 osteoblasts to PMMA bone cement shaped articles coated with cell-selective acrylate peptides; type: cell-based, mouse; details: for cell adhesion, calculated Abs (405 nm), osteoblasts: first part experiment
From the text: as §1, §2, §3, §4

[4] = 1 μM peptide in the coating solution
[5] = 10 μM peptide in the coating solution
[6] = 100 μM peptide in the coating solution
[7] = second part experiment, 100 μM peptide in the coating solution

cyclo(RGDf[acrylic-ahx-tEG-K]) [acrylate peptide 3]
cell adhesion, calculated Abs (405 nm), platelets (human platelets; [4]): about 0.2 Abs
cell adhesion, calculated Abs (405 nm), platelets (human platelets; [5]): about 1.5 Abs
cell adhesion, calculated Abs (405 nm), platelets (human platelets; [6]): about 3.0 Abs
cell adhesion, Abs, platelets alone (human platelets; [7]): about 3.0 Abs
cell adhesion, Abs, osteoblasts/platelets inoculated as a mixture [1]: about 6.5 Abs
maximum adhesion rates (MC3T3 H1 osteoblasts [2]; Kevloc process): about 80%
maximum adhesion rates (MC3T3 H1 osteoblasts [2]; Silicoater process): about 80%
maximum adhesion rates (MC3T3 H1 osteoblasts [2]; pigment coating): about 60%
EC50 (MC3T3 H1 osteoblasts [2]; all three coating variants, read-out: half-maximal cell bindings, RGD peptide concentration in the coating solution): 1 to 100 nM
cell adhesion, calculated Abs (405 nm), osteoblasts (MC3T3 H1 osteoblasts [3]; [4]): about 1.8 Abs
cell adhesion, calculated Abs (405 nm), osteoblasts (MC3T3 H1 osteoblasts [3]; [5]): about 2.0 Abs
cell adhesion, calculated Abs (405 nm), osteoblasts (MC3T3 H1 osteoblasts [3]; [6]): about 6.0 Abs
cell adhesion, Abs, osteoblasts alone (MC3T3 H1 osteoblasts [3]; [7]): about 6.0 Abs
